# Reference: ChEMBL document CHEMBL1201862, “PubChem BioAssay data set” (2004)
# Active and inactive are the calls of the source.
# Tests used:
# [1] = biological target: T1, RNA-binding protein pos-1 (Caenorhabditis elegans, UniProt G5EF15); experiment: disruptors of C. elegans POS-1 RNA interaction – biochemical, fluorescence polarization, dose response (AID 1964);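 note: purified POS-1 fused to maltose binding protein made in E. coli; potency of compounds blocking POS-1 binding to fluorescent RNA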
# T1 sequence (G5EF15 whole entry): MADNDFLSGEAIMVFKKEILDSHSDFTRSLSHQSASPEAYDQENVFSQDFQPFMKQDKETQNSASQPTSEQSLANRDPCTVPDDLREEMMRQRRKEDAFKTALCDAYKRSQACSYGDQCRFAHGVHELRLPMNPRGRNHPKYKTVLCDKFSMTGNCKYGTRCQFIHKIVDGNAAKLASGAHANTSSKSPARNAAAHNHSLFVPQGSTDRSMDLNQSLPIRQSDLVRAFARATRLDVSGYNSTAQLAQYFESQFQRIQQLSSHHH
# [2] = biological target: T2, Zinc finger protein mex-5 (Caenorhabditis elegans, UniProt Q9XUB2); experiment: potency of MEX-5 RNA-binding blockers – biochemical, C. elegans, fluorescence polarization, dose response (AID 1960)
# T2 sequence (Q9XUB2 whole entry): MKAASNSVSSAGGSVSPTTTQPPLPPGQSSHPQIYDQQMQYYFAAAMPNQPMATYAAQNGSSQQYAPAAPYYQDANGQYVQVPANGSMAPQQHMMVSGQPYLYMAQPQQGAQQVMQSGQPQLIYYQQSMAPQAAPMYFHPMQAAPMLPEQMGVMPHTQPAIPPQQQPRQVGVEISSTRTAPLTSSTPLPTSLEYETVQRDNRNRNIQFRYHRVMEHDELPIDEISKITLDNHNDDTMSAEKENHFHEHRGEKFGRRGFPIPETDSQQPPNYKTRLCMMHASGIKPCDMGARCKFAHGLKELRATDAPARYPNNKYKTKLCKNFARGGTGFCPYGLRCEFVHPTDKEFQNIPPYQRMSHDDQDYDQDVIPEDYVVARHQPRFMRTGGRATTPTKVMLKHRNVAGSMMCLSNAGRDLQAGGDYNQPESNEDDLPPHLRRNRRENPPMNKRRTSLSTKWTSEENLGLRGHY
# [3] = biological target: T3, Endoribonuclease toxin MazF (Escherichia coli K-12, UniProt P0AE70); experiment: activation of MazEF endoribonuclease cleavage – biochemical, fluorescence, single-stranded RNA substrate, uHTS hits, dose response (AID 588481); type: functional
# T3 sequence (P0AE70 whole entry): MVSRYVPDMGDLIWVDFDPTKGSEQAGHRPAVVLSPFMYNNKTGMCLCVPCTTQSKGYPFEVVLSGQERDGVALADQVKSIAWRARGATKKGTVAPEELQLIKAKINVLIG
# [4] = biological target: T3, Endoribonuclease toxin MazF; experiment: substrate-only fluorescence increase artefacts – biochemical, single-stranded RNase substrate, counter-screen for MazEF activator project, dose response (AID 588502); type: functional
# DNA topoisomerase = biological target: T4, DNA topoisomerase (Yersinia pestis, UniProt A0A2S9PM60); experiment: Yersinia topoisomerase I cleavage product accumulation – biochemical, cherry-pick, dose response (AID 588525)
# T4 sequence (A0A2S9PM60 whole entry): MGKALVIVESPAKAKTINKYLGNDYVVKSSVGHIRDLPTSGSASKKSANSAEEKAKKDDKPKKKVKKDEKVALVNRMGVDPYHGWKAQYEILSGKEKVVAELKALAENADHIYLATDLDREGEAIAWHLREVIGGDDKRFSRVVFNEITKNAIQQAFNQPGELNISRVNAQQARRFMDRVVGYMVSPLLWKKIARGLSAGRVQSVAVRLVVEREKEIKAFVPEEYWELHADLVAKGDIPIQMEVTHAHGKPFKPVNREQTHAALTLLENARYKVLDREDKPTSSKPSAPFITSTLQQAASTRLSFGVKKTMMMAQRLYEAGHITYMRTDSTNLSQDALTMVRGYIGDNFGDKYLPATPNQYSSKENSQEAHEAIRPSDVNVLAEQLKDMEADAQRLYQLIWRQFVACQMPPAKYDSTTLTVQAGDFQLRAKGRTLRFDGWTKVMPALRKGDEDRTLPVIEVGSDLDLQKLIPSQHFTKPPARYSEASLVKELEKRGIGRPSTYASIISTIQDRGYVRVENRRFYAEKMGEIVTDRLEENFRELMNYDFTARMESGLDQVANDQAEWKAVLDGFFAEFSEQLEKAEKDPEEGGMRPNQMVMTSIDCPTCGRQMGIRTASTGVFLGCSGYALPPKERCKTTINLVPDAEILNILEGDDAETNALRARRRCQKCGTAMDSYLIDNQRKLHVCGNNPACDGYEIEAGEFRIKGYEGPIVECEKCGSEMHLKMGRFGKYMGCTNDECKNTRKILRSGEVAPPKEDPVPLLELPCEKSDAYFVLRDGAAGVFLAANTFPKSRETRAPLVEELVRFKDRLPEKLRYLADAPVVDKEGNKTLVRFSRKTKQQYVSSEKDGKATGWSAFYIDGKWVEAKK
# [5] = viability of uninfected HEp-2 cells – cell-based, HTS, cytotoxicity control for RSV inhibitor project, dose response (AID 2410); type: functional; settings: human respiratory syncytial virus
# Cysteine protease ATG4B = biological target: T5, Cysteine protease ATG4B (Homo sapiens, UniProt Q9Y4P1); type: functional;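 note: Fluorescence-based dose-response confirmation assay measuring inhibition of ATG4B activity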
# T5 sequence (Q9Y4P1 whole entry): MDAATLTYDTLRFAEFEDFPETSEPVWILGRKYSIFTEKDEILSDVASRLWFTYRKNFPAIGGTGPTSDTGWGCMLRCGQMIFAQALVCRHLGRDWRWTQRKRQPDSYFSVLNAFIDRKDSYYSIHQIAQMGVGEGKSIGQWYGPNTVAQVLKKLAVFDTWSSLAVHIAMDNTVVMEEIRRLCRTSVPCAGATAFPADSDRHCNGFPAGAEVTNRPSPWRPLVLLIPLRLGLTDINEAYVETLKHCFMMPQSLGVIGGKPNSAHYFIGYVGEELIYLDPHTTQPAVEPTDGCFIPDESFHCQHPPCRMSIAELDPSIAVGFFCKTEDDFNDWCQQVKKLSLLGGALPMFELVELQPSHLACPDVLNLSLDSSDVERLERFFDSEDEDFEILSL
# Phospholipase A2 = Phospholipase A2 (Homo sapiens, UniProt P04054); type: functional;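 note: confirmatory dose-response counterscreen on phospholipase A2, testing hits that came from an ultra-high-throughput screen for ATG4B inhibitors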
# Sequence of Phospholipase A2 (P04054 whole entry): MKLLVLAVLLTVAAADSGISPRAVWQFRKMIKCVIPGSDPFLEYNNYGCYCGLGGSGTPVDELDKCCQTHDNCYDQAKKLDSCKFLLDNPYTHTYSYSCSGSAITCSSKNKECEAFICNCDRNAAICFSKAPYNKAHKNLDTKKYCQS
# Cytochrome P450 2C19 = Cytochrome P450 2C19 (Homo sapiens, UniProt P33261); experiment: Cytochrome panel assay with activity outcomes. Panel member name: p450-cyp2c19 Compounds with AC50 equal or less than 10 uM are considered active; type: functional; settings: read-out: AC50
# Sequence of Cytochrome P450 2C19 (P33261 whole entry): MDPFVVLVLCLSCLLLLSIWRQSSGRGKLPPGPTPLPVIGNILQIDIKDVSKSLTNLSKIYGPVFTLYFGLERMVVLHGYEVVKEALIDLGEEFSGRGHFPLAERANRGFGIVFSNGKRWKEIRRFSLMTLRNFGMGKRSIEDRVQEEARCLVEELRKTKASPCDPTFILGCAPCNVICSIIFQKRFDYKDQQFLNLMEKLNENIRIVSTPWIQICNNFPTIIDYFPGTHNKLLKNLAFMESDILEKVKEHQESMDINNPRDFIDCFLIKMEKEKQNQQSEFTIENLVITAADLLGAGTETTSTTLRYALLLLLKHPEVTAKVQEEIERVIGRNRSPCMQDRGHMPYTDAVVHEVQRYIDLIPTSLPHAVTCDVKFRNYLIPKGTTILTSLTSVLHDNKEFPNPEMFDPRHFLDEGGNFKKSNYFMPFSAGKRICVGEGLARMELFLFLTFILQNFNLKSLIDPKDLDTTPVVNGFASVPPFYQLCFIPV
# Cytochrome P450 2C9 = Cytochrome P450 2C9 (Homo sapiens, UniProt P11712)
# Sequence of Cytochrome P450 2C9 (P11712 whole entry): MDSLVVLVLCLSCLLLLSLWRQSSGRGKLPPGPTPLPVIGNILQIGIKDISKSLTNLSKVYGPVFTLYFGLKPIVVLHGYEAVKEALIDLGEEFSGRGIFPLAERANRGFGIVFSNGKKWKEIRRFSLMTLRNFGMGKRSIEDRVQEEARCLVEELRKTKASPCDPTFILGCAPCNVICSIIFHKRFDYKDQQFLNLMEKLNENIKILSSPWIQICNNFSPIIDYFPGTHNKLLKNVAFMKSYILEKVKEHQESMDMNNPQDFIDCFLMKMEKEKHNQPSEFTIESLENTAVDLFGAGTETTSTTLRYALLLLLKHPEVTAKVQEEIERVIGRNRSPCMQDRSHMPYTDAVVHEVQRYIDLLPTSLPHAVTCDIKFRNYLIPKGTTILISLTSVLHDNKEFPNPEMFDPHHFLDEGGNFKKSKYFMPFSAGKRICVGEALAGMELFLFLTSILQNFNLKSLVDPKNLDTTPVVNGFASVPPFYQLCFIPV
# [6] = biological target: T6, Short transient receptor potential channel 4 (Mus musculus, UniProt Q9QUQ5); experiment: calcium entry via TRPC4 opening agents – cell-based, HEK293 TRPC4/mu-opioid, Fluo-4 calcium, dose response (AID 434937); type: functional
# T6 sequence (Q9QUQ5 whole entry): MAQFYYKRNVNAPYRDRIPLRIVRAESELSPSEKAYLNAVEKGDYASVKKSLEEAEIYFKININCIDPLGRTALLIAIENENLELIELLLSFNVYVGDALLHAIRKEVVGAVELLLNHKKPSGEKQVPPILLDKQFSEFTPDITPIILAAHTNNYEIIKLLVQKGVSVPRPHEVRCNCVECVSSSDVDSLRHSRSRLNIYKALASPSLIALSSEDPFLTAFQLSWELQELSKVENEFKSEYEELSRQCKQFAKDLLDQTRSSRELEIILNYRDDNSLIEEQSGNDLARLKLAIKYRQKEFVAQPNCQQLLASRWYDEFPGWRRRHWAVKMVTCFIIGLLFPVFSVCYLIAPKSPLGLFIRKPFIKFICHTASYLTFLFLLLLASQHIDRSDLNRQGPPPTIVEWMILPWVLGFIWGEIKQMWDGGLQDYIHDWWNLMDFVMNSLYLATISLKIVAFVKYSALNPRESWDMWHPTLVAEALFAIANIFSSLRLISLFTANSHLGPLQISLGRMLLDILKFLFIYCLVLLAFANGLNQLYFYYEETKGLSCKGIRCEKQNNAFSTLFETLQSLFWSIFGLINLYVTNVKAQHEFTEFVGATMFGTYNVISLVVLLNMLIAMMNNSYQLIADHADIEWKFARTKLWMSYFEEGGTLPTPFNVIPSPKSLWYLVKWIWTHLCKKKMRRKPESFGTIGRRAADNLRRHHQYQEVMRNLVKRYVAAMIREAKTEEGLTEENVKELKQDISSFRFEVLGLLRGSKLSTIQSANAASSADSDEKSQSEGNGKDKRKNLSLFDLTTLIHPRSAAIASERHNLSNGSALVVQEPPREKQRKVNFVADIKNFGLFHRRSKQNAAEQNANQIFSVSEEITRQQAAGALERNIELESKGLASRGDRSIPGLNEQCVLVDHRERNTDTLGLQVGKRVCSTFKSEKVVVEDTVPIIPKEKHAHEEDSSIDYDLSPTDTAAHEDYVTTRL
# [7] = biological target: 5-hydroxytryptamine receptor 5A (Homo sapiens, UniProt P47898); experiment: Counterscreen for agonists of OPRM1-OPRD1 heterodimerization: luminescence-based cell-based high throughput dose response assay to identify agonists of 5-hydroxytryptamine (serotonin) 5A receptor (HTR5A). [Related pubchem assays (depositor defined):AID504326, AID504355, AID504692, AID504904, AID504905]; type: functional
# Sequence of 5-hydroxytryptamine receptor 5A (P47898 whole entry): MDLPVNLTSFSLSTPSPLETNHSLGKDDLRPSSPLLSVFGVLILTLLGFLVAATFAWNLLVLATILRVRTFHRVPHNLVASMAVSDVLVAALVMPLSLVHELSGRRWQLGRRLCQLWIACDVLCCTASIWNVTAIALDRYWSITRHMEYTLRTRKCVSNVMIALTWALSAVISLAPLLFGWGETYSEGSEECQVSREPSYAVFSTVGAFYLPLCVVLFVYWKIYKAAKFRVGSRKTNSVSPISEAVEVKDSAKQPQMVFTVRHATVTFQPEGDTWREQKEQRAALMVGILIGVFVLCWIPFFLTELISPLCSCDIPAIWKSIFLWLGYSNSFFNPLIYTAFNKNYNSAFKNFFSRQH
# Cytochrome P450 2D6 = Cytochrome P450 2D6 (Homo sapiens, UniProt P10635);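 note: CYP2D6 member of a cytochrome P450 panel assay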
# Sequence of Cytochrome P450 2D6 (P10635 whole entry): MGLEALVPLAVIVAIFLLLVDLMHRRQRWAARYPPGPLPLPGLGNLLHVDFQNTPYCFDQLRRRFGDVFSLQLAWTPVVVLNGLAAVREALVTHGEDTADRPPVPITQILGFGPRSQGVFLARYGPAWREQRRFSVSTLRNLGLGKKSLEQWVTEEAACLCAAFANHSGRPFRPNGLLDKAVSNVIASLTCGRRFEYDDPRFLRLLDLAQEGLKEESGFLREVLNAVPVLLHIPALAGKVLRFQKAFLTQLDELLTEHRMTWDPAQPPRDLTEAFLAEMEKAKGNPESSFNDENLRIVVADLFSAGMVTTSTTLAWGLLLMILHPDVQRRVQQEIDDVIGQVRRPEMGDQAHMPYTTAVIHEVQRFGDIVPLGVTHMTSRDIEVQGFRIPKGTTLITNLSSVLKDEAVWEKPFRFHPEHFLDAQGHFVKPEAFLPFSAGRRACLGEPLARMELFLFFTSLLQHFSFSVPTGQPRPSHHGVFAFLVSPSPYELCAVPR
# Mu-type opioid receptor = Mu-type opioid receptor (Homo sapiens, UniProt P35372); experiment: (§1) Counterscreen for agonists of heterodimerization of the mu 1 (OPRM1) and delta 1 (OPRD1) opioid receptors: Luminescence-based cell-based high throughput dose response assay to identify agonists of OPRM1 homodimerization.; type: functional
# Sequence of Mu-type opioid receptor (P35372 whole entry): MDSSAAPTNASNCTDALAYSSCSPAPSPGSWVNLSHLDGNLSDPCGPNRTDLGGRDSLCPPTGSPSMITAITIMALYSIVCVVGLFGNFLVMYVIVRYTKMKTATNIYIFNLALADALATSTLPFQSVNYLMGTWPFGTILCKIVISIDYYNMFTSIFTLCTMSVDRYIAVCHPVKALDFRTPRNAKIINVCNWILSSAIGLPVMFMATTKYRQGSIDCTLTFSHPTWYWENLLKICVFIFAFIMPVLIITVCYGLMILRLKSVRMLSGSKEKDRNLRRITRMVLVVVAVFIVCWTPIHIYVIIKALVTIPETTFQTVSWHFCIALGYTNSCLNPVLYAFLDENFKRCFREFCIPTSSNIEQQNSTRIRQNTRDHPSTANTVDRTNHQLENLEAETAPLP
# [8] = biological target: Delta-type opioid receptor (Homo sapiens, UniProt P41143); experiment: as §1, with “of OPRD1” for “of OPRM1”, “homodimerization. [Related pubchem assays (depositor defined):AID504326, AID504355, AID504692, AID504904, AID504905]” for “homodimerization.”; type: functional
# Sequence of Delta-type opioid receptor (P41143 whole entry): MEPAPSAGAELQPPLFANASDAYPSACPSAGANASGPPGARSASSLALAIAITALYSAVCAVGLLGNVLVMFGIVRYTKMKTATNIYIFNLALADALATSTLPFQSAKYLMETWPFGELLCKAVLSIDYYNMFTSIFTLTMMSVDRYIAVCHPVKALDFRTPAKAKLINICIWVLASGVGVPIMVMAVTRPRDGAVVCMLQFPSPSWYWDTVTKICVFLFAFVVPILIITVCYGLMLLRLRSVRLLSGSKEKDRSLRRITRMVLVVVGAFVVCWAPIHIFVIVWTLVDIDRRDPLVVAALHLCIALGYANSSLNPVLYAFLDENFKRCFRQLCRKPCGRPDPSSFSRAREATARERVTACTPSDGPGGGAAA
# [9] = biological target: T7, Heat shock factor protein 1 (Mus musculus, UniProt P38532); experiment: enhancement of HSF1-driven luciferase signal – cell-based, NIH3T3, luminescence, dose retest, confirmation (AID 435004); type: functional;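 note: stress induced by proteasome inhibitor MG132 added 30 min after compound; luciferase reporter driven by HSF1 response element in NIH3T3 cells; actives raise luminescence as potentiators of the MG132 stress response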
# T7 sequence (P38532 whole entry): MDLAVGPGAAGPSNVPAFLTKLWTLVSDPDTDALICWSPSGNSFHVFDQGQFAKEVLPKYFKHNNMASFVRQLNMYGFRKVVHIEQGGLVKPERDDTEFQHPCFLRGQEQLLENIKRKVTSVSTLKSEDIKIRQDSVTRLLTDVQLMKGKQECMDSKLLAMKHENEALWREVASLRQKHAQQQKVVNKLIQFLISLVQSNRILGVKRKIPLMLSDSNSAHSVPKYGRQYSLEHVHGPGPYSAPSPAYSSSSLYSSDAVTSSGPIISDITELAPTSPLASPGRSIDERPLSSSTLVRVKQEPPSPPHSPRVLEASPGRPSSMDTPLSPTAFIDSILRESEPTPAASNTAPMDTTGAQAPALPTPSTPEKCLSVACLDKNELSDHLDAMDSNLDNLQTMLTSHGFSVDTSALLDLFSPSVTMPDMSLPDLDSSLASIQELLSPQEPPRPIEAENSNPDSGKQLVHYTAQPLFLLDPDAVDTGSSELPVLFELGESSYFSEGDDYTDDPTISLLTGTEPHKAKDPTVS
# Beta-galactosidase = Beta-galactosidase (Escherichia coli, UniProt Q8VNN2); experiment: PubChem AID 485352; type: functional
# Sequence of Beta-galactosidase (Q8VNN2 whole entry): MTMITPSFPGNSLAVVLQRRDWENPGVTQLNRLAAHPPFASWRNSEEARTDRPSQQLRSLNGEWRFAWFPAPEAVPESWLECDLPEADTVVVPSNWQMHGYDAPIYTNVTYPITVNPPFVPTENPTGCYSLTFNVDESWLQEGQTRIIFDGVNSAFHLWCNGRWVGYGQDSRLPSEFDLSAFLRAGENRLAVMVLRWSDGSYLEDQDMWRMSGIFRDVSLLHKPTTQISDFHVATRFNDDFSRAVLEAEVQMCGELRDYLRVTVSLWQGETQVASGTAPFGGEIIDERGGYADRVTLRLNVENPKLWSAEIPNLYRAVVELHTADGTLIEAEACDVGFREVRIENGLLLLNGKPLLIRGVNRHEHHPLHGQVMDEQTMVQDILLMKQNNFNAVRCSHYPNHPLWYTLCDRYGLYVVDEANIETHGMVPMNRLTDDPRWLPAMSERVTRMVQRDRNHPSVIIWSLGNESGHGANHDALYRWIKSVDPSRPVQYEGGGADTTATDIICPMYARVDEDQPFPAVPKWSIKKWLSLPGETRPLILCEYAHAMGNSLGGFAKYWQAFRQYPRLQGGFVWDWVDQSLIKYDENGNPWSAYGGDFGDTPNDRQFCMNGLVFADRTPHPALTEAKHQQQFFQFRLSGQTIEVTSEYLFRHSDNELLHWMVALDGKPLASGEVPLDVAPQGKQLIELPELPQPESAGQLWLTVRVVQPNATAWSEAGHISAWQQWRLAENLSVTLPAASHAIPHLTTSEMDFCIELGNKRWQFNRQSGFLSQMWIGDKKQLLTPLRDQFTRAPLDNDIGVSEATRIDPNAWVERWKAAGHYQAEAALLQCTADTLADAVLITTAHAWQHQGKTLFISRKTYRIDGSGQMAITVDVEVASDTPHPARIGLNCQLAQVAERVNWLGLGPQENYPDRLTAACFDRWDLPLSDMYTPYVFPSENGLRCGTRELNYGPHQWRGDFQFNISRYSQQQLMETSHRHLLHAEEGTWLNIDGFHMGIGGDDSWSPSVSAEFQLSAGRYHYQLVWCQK
# [10] = biological target: T8, Type-1 angiotensin II receptor (Homo sapiens, UniProt P30556); experiment: antagonism of angiotensin II type 1 receptor – cell-based, uHTS hits, selectivity assay for APJ receptor antagonist project, dose response (AID 463214); type: functional;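 note: antagonist potency against angiotensin II stimulated AT1 response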
# T8 sequence (P30556 whole entry): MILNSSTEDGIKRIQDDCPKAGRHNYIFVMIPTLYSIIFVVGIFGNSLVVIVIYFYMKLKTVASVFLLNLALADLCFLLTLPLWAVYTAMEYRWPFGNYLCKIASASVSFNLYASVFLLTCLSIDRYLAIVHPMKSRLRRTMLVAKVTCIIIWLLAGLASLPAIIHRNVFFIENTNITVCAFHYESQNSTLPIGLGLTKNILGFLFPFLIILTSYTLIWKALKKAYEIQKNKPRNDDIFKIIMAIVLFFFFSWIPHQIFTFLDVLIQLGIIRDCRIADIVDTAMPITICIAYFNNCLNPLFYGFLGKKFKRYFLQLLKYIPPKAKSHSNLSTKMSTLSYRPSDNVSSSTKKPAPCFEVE
smiles,measurement,setting,value
COc1ccc(/C=C/c2nc3sc4c(c3c(=O)o2)CCC4)cc1,EC50,[1],6.97 µM (inconclusive)
same,EC50,[2],125 µM (inconclusive)
same,EC50,[3],46.6 µM (inactive)
same,EC50,[4],> 99 µM (inactive)
O=C1CN(C(=O)CSc2nc3cc(Cl)ccc3c(=O)n2Cc2ccccc2)c2ccccc2N1,AC50,DNA topoisomerase,9.89 µM (active)
same,CC50,[5],46.4 µM (active)
O=C(c1ccc(-n2c(SCc3cc(F)ccc3F)nc3ccccc3c2=O)cc1)N1CCOCC1,IC50,Cysteine protease ATG4B,8.7 µM (active)
same,IC50,Phospholipase A2,11.7 µM (active)
Cc1ccc(C2=C/C(=C/c3cccs3)C(=O)O2)cc1,EC50,[3],> 99 µM (inactive)
same,EC50,[4],28.2 µM (inactive)
O=C(O)c1ccc(C[n+]2c(-c3ccccc3)csc2Nc2ccccc2)cc1,IC50,Cysteine protease ATG4B,15.1 µM (active)
same,IC50,Phospholipase A2,> 80 µM (inactive)
CN(C)C(CNC(=O)NC1CCCCC1)c1cccnc1 (configuration not stated),AC50,Cytochrome P450 2C19,25.1 µM (inconclusive)
same,AC50,Cytochrome P450 2C9,398 nM (inconclusive)
same,EC50,[6],60 nM (active)
same,EC50,[7],> 92.5 µM (inactive)
same,AC50,Cytochrome P450 2D6,31.6 µM (inconclusive)
same,EC50,Mu-type opioid receptor,> 92.5 µM (inactive)
same,EC50,[8],> 92.5 µM (inactive)
N#Cc1ccc(-c2cccnc2)nc1SCC(=O)c1ccccc1,EC50,[3],23.3 µM (inactive)
same,EC50,[4],35.9 µM (inactive)
NC(=O)c1ccc(C(F)(F)F)n(Cc2cccc(Cl)c2)c1=O,IC50,Cysteine protease ATG4B,26.3 µM (inactive)
same,IC50,Phospholipase A2,3.93 µM (active)
same,EC50,[9],> 260 µM (inactive)
Cc1ccc(C(=O)CNc2cccc(Cl)c2)cc1,EC50,Beta-galactosidase,> 40 µM (inactive)
same,AC50,DNA topoisomerase,21.7 µM (active)
same,IC50,[10],9.87 µM (active)
